According to patent publication US9193728B2, “Fused tetracyclic pyrido [4,3-B] indole and pyrido [3,4-B] indole derivatives and methods of use” (Medivation Technologies, Inc., priority 2010, dated 2015):

Legend:
[1] = biological target: T1, human recombinant serotonin (5-Hydroxytryptamine) 5-HT2A receptor (Homo sapiens, UniProt P28223); test: Serotonin 5-HT2A radioligand binding ([3H]Ketanserin); details: compound at 0.1 μM; read-out: Serotonin (0.1 μM) 5-HT2A, percentage inhibition of ligand binding
T1 construct: expressed in transfected cells; host or cells: CHO-K1
T1 sequence (P28223 whole entry): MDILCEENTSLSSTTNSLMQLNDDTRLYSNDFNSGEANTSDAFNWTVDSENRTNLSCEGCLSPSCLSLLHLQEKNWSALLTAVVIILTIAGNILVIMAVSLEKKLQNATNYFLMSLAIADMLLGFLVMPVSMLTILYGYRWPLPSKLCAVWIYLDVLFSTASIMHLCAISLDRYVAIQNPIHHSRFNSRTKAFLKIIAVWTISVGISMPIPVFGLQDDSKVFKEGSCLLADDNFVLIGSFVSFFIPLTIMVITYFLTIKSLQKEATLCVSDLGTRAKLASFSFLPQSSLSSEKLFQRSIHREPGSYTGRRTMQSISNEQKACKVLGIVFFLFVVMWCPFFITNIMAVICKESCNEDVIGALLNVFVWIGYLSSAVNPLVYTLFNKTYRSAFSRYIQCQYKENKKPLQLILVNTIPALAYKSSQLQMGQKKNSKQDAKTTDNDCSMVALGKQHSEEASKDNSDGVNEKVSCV
Protocol: To evaluate in radioligand binding assays the activity of compounds of the invention, human recombinant serotonin (5-Hydroxytryptamine) 5-HT2A receptor expressed in Chinese hamster ovary (CHO)-K1 cells (Bonhaus, D. et al, Br. J. Pharmacol. 115:622, 1995; Saucier, C. et al, J. Neurochem. 68:1998, 1997) in a 50 mM Tris-HCl buffer, pH 7.4, was used. Compounds of the invention were incubated with 0.5 nM [^3H]Ketanserin for 60 min. at 25° C. Non-specific binding was estimated in the presence of 1 μM Mianserin. Receptor proteins were filtered and washed, the filters were then counted to determine [^3H]Ketanserin specifically bound. Compounds were screened at 1 μM or lower, using 1% DMSO as vehicle. Biochemical assay results are presented as the percent inhibition of specific binding in Table 4.

[2] = biological target: T2, human recombinant dopamine D2L receptor (Homo sapiens, UniProt P14416); test: Dopamine D2L radioligand binding ([3H]Spiperone); details: compound at 1 μM; read-out: Dopamine (1 μM) D2L, percentage inhibition of ligand binding
T2 construct: expressed in transfected cells; host or cells: CHO
T2 sequence (P14416 whole entry): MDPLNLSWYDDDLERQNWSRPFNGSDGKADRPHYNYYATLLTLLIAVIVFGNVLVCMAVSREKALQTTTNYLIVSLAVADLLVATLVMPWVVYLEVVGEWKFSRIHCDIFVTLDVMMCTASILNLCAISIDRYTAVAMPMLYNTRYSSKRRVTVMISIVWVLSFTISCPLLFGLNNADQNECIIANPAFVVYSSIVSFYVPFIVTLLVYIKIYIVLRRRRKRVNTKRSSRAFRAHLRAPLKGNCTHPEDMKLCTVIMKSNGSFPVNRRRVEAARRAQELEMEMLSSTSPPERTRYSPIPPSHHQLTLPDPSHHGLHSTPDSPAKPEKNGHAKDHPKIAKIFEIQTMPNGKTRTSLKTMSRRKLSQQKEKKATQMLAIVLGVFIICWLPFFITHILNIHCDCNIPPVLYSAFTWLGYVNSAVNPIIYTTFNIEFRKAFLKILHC
Protocol: To evaluate in radioligand binding assays the activity of compounds of the invention, human recombinant dopamine D2L receptor expressed in Chinese hamster ovary (CHO) cells (Grandy, D. et al, Proc. Natl. Acad. Sci. USA. 86:9762, 1989; Hayes, G. et al, Mol. Endocrinol. 6:920, 1992) in a modified Tris-HCl buffer (50 mM Tris-HCl, pH 7.4, 1.4 mM Ascorbic Acid, 0.001% BSA, 150 mM NaCl) was used. Compounds of the invention were incubated with 0.16 nM [^3H]Spiperone for 120 min. at 25° C. Non-specific binding was estimated in the presence of 10 μM Haloperidol. Receptor proteins were filtered and washed, the filters were then counted to determine [^3H]Spiperone specifically bound. Compounds were screened at 1 μM or lower, using 1% DMSO as vehicle. Biochemical assay results are presented as the percent inhibition of specific binding in Table 3.

[3] = biological target: T3, human recombinant histamine H1 receptor (Homo sapiens, UniProt P35367); test: Histamine H1 radioligand binding ([3H]Pyrilamine); details: compound at 1 μM; 1.2 nM [3H]Pyrilamine; read-out: Histamine Binding (1 μM) H1, percentage inhibition
T3 construct: expressed in transfected cells; host or cells: CHO-K1
T3 sequence (P35367 whole entry): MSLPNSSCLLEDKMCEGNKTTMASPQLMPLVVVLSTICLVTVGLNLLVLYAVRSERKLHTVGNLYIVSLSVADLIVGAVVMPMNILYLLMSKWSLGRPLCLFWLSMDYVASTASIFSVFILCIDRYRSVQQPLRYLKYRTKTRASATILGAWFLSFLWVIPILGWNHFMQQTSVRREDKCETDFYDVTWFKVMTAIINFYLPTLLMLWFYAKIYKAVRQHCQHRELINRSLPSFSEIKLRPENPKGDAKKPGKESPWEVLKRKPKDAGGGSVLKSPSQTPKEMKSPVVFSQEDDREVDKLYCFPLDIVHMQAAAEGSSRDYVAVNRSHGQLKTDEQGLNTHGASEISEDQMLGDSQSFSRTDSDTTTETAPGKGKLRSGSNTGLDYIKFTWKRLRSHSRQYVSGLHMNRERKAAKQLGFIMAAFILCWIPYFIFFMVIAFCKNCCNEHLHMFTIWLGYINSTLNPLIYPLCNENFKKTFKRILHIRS
Protocol: To evaluate in radioligand binding assays the activity of compounds of the invention, human recombinant histamine H1 receptor expressed in Chinese hamster ovary (CHO) K1 cells (De Backer, M. et al, Biochem. Biophys. Res. Comm. 197(3):1601, 1993) in a modified Tris-HCl buffer (50 mM Tris-HCl, pH 7.4, 2 mM MgCl2, 100 mM NaCl, 250 mM Sucrose) was used. Compounds of the invention were incubated with 1.2 nM [^3H]Pyrilamine for 180 min. at 25° C. Non-specific binding was estimated in the presence of 1 μM Pyrilamine. Receptor proteins were filtered and washed, the filters were then counted to determine [^3H]Pyrilamine specifically bound. Compounds were screened at 1 μM or lower, using 1% DMSO as vehicle. Biochemical assay results are presented as the percent inhibition of specific binding in Table 2.

[4] = biological target: T4, human recombinant serotonin (5-Hydroxytryptamine) 5-HT6 receptor (Homo sapiens, UniProt P50406); test: Serotonin 5-HT6 radioligand binding ([3H]LSD); details: compound at 0.1 μM; read-out: Serotonin (0.1 μM) 5-HT6, percentage inhibition of ligand binding
T4 construct: expressed in transfected cells; host or cells: HeLa
T4 sequence (P50406 whole entry): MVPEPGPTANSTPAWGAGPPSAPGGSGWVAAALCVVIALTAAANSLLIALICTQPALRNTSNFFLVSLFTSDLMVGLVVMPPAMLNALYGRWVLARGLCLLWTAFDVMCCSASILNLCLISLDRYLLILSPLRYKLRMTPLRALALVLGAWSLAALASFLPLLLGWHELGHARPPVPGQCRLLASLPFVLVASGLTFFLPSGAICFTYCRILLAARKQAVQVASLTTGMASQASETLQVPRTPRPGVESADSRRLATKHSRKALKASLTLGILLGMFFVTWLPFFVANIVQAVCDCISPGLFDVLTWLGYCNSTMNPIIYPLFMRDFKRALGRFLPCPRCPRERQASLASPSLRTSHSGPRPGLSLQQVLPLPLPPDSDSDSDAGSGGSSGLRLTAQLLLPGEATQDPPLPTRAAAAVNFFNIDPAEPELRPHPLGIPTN
Protocol: To evaluate in radioligand binding assays the activity of compounds of the invention, human recombinant serotonin (5-Hydroxytryptamine) 5-HT6 receptor expressed in human HeLa cells (Monsma, F. Jr. et al, Mol. Pharmacol. 43:320, 1993) in a modified Tris-HCl buffer (50 mM Tris-HCl, pH 7.4, 150 mM NaCl, 2 mM Ascorbic Acid, 0.001% BSA) was used. Compounds of the invention were incubated with 1.5 nM [3H]Lysergic acid diethylamide (LSD) for 120 min. at 37° C. Non-specific binding was estimated in the presence of 5 μM Serotonin (5-HT). Receptor proteins were filtered and washed, the filters were then counted to determine [3H]LSD specifically bound. Compounds were screened at 1 μM or lower, using 1% DMSO as vehicle. Biochemical assay results are presented as the percent inhibition of specific binding in Table 4.

[5] = biological target: T5, human recombinant serotonin (5-Hydroxytryptamine) 5-HT7 receptor (Homo sapiens, UniProt P34969); test: Serotonin 5-HT7 radioligand binding ([3H]LSD); details: compound at 0.1 μM; read-out: Serotonin (0.1 μM) 5-HT7, percentage inhibition of ligand binding
T5 construct: expressed in transfected cells; host or cells: CHO
T5 sequence (P34969 whole entry): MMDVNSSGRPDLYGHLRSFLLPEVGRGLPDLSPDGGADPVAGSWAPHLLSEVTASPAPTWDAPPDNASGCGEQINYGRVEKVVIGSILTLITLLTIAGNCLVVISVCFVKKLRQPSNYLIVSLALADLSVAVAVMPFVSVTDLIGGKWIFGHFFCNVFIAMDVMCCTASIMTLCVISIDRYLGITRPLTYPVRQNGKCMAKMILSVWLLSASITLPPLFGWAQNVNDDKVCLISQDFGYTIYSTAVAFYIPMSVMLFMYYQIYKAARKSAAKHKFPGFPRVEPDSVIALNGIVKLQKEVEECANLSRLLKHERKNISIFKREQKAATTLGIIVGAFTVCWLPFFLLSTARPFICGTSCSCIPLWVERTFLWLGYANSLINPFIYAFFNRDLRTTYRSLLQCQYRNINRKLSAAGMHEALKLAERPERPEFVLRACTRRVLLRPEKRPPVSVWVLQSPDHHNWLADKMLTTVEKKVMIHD
Protocol: To evaluate in radioligand binding assays the activity of compounds of the invention, human recombinant serotonin (5-Hydroxytryptamine) 5-HT7 receptor expressed in Chinese hamster ovary (CHO) cells (Roth, B. et al, J. Pharmacol. Exp. Ther. 268:1403, 1994; Shen, Y. et al, J. Biol. Chem. 268:18200, 1993) in a modified Tris-HCl buffer (50 mM Tris-HCl, pH 7.4, 10 mM MgCl2, 0.5 mM EDTA) was used. Compounds of invention were incubated with 5.5 nM [^3H]Lysergic acid diethylamide (LSD) for 120 min. at 25° C. Non-specific binding was estimated in the presence of 10 μM Serotonin (5-HT). Receptor proteins were filtered and washed, the filters were then counted to determine [^3H]LSD specifically bound. Compounds were screened at 1 μM or lower, using 1% DMSO as vehicle. Biochemical assay results are presented as the percent inhibition of specific binding in Table 4.

[6] = biological target: T6, human recombinant serotonin (5-Hydroxytryptamine) 5-HT2C receptor (Homo sapiens, UniProt P28335); test: Serotonin 5-HT2C radioligand binding ([3H]Mesulergine); details: compound at 0.1 μM; read-out: Serotonin (0.1 μM) 5-HT2C, percentage inhibition of ligand binding
T6 construct: expressed in transfected cells; host or cells: CHO-K1
T6 sequence (P28335 33-458): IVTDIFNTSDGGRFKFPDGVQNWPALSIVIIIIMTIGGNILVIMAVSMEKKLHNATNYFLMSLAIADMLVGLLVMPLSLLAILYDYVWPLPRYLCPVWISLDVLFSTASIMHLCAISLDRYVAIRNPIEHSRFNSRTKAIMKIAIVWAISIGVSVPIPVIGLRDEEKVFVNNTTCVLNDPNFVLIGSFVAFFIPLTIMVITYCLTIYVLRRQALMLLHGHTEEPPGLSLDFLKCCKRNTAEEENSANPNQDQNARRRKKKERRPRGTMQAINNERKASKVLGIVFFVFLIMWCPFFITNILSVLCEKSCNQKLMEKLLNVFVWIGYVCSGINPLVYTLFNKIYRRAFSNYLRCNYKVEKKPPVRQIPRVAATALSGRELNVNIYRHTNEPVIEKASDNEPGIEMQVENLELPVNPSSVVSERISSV
Protocol: To evaluate in radioligand binding assays the activity of compounds of the invention, human recombinant serotonin (5-Hydroxytryptamine) 5-HT2C receptor expressed in Chinese hamster ovary (CHO)-K1 cells (Wolf, W. et al, J. Neurochem. 69:1449, 1997) in a modified Tris-HCl buffer (50 mM Tris-HCl, pH 7.4, 0.1% Ascorbic Acid, 10 μM Pargyline) was used. Compounds of the invention were incubated with 1 nM [^3H]Mesulergine for 60 min. at 25° C. Non-specific binding was estimated in the presence of 1 μM Mianserin. Receptor proteins were filtered and washed, the filters were then counted to determine [^3H]Mesulergine specifically bound. Compounds were screened at 1 μM or lower, using 1% DMSO as vehicle. Biochemical assay results are presented as the percent inhibition of specific binding in Table 4.

Row | Compound | inhibition at 0.1 µM [1] | inhibition at 1 µM [2] | inhibition at 1 µM [3] | inhibition at 0.1 µM [4] | inhibition at 0.1 µM [5] | inhibition at 0.1 µM [6]
1 | Cc1cc2c3c(c1)c1c(n3CC(c3ccc(F)cc3)=CC2)CCN(C)C1 [Compound 156, (Z)-6-(4-fluorophenyl)-2,11-dimethyl-4,7,9,10,11,12-hexahydroazepino[3,2,1-hi]pyrido[4,3-b]indole] | 98% | 65% | 101% | 62% | 49% | 93%
2 | CN1CCc2c(c3cccc4c3n2CCC4)C1 [Compound 8] | 30% | 15% | 49% | 9% | 14% | 48%
3 | Cc1cc2c3c(c1)c1c(n3C(c3ccccc3)C2)CCN(C)C1 (stereo not drawn) [Compound 12] | 90% | 44% | 101% | 59% | 81% | 102%
4 | Cc1cc2c3c(c1)c1c(n3CC(c3ccc(F)cc3)CC2)CCN(C)C1 (stereo not drawn) [Compound 157, 6-(4-fluorophenyl)-2,11-dimethyl-4,5,6,7,9,10,11,12-octahydroazepino[3,2,1-hi]pyrido[4,3-b]indole] | 90% | 83% | 95% | 91% | 80% | 96%
5 | Cc1cc2c(-c3ccccc3)cn3c4c(c(c1)c23)CN(C)CC4 [Compound 211] | 50% | – | – | 47% | 78% | –
6 | Cc1cc2c3c(c1)c1c(n3CC(c3ccccc3)O2)CCN(C)C1 (stereo not drawn) [Compound 15, 5,8-dimethyl-2-phenyl-1,2,7,8,9,10-hexahydro-[1,4]oxazino[2,3,4-hi]pyrido[4,3-b]indole] | 10% | 76% | 96% | 21% | 9% | 4%
7 | CN1CCc2c(c3cccc4c3n2CC(=O)N4Cc2ccncc2)C1 [Compound 159] | 53% | 6% | 16% | 4% | 38% | 35%
8 | Cc1ccc(C2Cn3c4c(c5cccc2c53)CN(C)CC4)cn1 (stereo not drawn) [Compound 210] | 23% | – | – | 1% | 21% | –
9 | CN1CCc2c(c3cccc4c3n2CC(c2ccc(F)cc2)C4)C1 (stereo not drawn) [Compound 16] | 40% | 91% | 78% | 57% | 16% | 34%
10 | CN1CCc2c(c3cccc4c3n2CC(c2ccncc2)C4)C1 (stereo not drawn) [Compound 7] | 7% | 54% | 92% | -2% | 10% | -5%
11 | CN1CCc2c(c3cccc4c3n2CCS4)C1 [Compound 11, 8-methyl-1,2,7,8,9,10-hexahydropyrido[4,3-b][1,4]thiazino[2,3,4-hi]indole] | 27% | 10% | 39% | 18% | -8% | 57%
12 | CN1CCc2c(c3cccc4c3n2C(c2ccccc2)C(=O)N4)C1 (stereo not drawn) [Compound 6] | 12% | 41% | 46% | -6% | 30% | 7%
13 | CN1CCc2c(c3cccc4c3n2CC(c2ccncc2)S4)C1 (stereo not drawn) [Compound 10] | 23% | 32% | 84% | 23% | 12% | 8%
14 | O=C(CCCN1CCc2c(c3cccc4c3n2CCC4)C1)c1ccc(F)cc1 [Compound 14] | 99% | 86% | 78% | 21% | 58% | 92%
15 | CN1CCc2c(c3cccc4c3n2CC(=O)N4)C1 [Compound 5] | -4% | 21% | 5% | 4% | 4% | 13%
16 | Cc1cc2c3c(c1)c1c(n3CC2)CCN(CCCC(=O)c2ccc(F)cc2)C1 [Compound 13] | 98% | 91% | 64% | 31% | 62% | 93%
17 | CN1CCc2c(c3cccc4c3n2CCO4)C1 [Compound 9, 8-methyl-1,2,7,8,9,10-hexahydro-[1,4]oxazino[2,3,4-hi]pyrido[4,3-b]indole] | 11% | 10% | 31% | 12% | 2% | 20%
